From US20220401514A1, “ANTIMICROBIAL, BACTERIOPHAGE-DERIVED POLYPEPTIDES AND THEIR USE AGAINST GRAM-NEGATIVE AND ACID-FAST BACTERIA” (CONTRAFECT CORPORATION, priority 2019, published 2022)
Like-named read-outs stand apart in the source and are kept apart here.

Assays:
[1] = test system: Acinetobacter baumannii strain 30; assay: Checkerboard assay (FICI) with antibiotics, A. baumannii; format: cell-based; set-up: key to FIC Index: FICI = FIC A + FIC B; ≤0.5 synergy, ≥2 antagonism; conditions: for Chp peptide FIC / Chp peptide MIC: checkerboard
[2] = Stability assessment in 100% CAA; format: in vitro ADME; set-up: unit not given beside the values
Method: Stability was assessed after incubation in 100% human serum at 37° C. after 10 minutes, 1 hour, and 2 hours.
Stability assessment was further conducted in 100% CAA and rabbit serum using the same methodology discussed above.

[3] = test system: M. avium; assay: 45 hr MIC against M. avium (NTM); format: cell-based, Mycobacterium avium; conditions: M. avium Chester ATCC 700898
[4] = test system: P. aeruginosa strain CFS 1292; format: cell-based, Pseudomonas aeruginosa
[5] = test system: P. aeruginosa (CFS 1292); assay: microbe, parasite or virus in culture; format: cell-based, Pseudomonas aeruginosa
[6] = in combination with Azithromycin
[7] = in combination with Ciprofloxacin
[8] = in combination with Levofloxacin
[9] = in combination with Piperacillin

MRLKMARRRYRLPRRRSRRLFSRTALRMHPRNRLRRIMRGGIRF [Chp2]
FIC Index ([1]; Chp peptide + Piperacillin): 0.375 | FIC Index ([1]; Chp peptide + Tobramycin): 0.188 | Chp peptide FIC ([1]; in combination with Amikacin): 0.03125 | Chp peptide MIC ([1]; in combination with Amikacin): 0.03125 µg/mL | Chp peptide FIC [1, 6]: 0.0625 | Chp peptide MIC [1, 6]: 0.03125 µg/mL | Chp peptide FIC ([1]; in combination with Aztreonam): 0.0625 | Chp peptide MIC ([1]; in combination with Aztreonam): 0.0625 µg/mL | Chp peptide FIC [1, 7]: 0.5 | Chp peptide MIC [1, 7]: 0.5 µg/mL | Chp peptide FIC ([1]; in combination with Colistin): 0.25 | Chp peptide MIC ([1]; in combination with Colistin): 0.25 µg/mL | Chp peptide FIC ([1]; in combination with Gentamicin): 0.0625 | Chp peptide MIC ([1]; in combination with Gentamicin): 0.0625 µg/mL | Chp peptide FIC ([1]; in combination with Imipenem): 0.03125 | Chp peptide MIC ([1]; in combination with Imipenem): 0.01562 µg/mL | Chp peptide FIC [1, 8]: 0.25 | Chp peptide MIC [1, 8]: 0.25 µg/mL | Chp peptide FIC ([1]; in combination with Meropenem): 0.125 | Chp peptide MIC ([1]; in combination with Meropenem): 0.125 µg/mL | Chp peptide FIC [1, 9]: 0.125 | Chp peptide MIC [1, 9]: 0.125 µg/mL | Chp peptide FIC ([1]; in combination with Tobramycin): 0.0625 | Chp peptide MIC ([1]; in combination with Tobramycin): 0.0625 µg/mL | MIC (100% CAA) [2]: 0.25 | 45 hr MIC [3]: 1 µg/mL | Serial Passage MIC Day 0 ([4]; 21-day study, Day 0, duplicates (1),(2)): 0.25 µg/mL | Serial Passage MIC Day 21 ([4]; 21-day study, Day 21, duplicates (1),(2)): 0.25 µg/mL | Serial Passage MIC Day 0 (untreated) ([4]; Day 0, MIC of agent on untreated control culture): 0.25 µg/mL | Serial Passage MIC Day 0 ([4]; Day 0, cultures passaged with agent, duplicates (1),(2)): 0.25 µg/mL | Serial Passage MIC Day 1 (untreated) ([4]; Day 1, MIC of agent on untreated control culture): 0.25 µg/mL | Serial Passage MIC Day 1 ([4]; Day 1, cultures passaged with agent, duplicates (1),(2)): 0.25 µg/mL | Serial Passage MIC Day 2 (untreated) ([4]; Day 2, MIC of agent on untreated control culture): 0.25 µg/mL | Serial Passage MIC Day 2 ([4]; Day 2, cultures passaged with agent, duplicates (1),(2)): 0.25 µg/mL | Serial Passage MIC Day 3 (untreated) ([4]; Day 3, MIC of agent on untreated control culture): 0.25 µg/mL | Serial Passage MIC Day 3 ([4]; Day 3, cultures passaged with agent, duplicates (1),(2)): 0.25 µg/mL | Serial Passage MIC Day 4 (untreated) ([4]; Day 4, MIC of agent on untreated control culture): 0.25 µg/mL | Serial Passage MIC Day 4 ([4]; Day 4, cultures passaged with agent, duplicates (1),(2)): 0.25 µg/mL | Serial Passage MIC Day 5 (untreated) ([4]; Day 5, MIC of agent on untreated control culture): 0.25 µg/mL | Serial Passage MIC Day 5 ([4]; Day 5, cultures passaged with agent, duplicates (1),(2)): 0.25 µg/mL | Serial Passage MIC Day 6 (untreated) ([4]; Day 6, MIC of agent on untreated control culture): 0.25 µg/mL | Serial Passage MIC Day 6 ([4]; Day 6, cultures passaged with agent, duplicates (1),(2)): 0.25 µg/mL | Serial Passage MIC Day 7 (untreated) ([4]; Day 7, MIC of agent on untreated control culture): 0.25 µg/mL | Serial Passage MIC Day 7 ([4]; Day 7, cultures passaged with agent, duplicates (1),(2)): 0.25 µg/mL | Serial Passage MIC Day 8 (untreated) ([4]; Day 8, MIC of agent on untreated control culture): 0.25 µg/mL | Serial Passage MIC Day 8 ([4]; Day 8, cultures passaged with agent, duplicates (1),(2)): 0.25 µg/mL | Serial Passage MIC Day 9 (untreated) ([4]; Day 9, MIC of agent on untreated control culture): 0.25 µg/mL | Serial Passage MIC Day 9 ([4]; Day 9, cultures passaged with agent, duplicates (1),(2)): 0.25 µg/mL | change in MIC after 21 days ([4]; serial passage): no significant change | Passage MIC Passage #1 (Untreated) ([5]; Passage #1, MIC of agent on untreated culture): 0.25 µg/mL | Passage MIC Passage #1 ([5]; Passage #1, colonies from spot dilution, duplicates (1),(2)): 0.25 µg/mL | Passage MIC Passage #2 (Untreated) ([5]; Passage #2, MIC of agent on untreated culture): 0.25 µg/mL | Passage MIC Passage #2 ([5]; Passage #2, colonies from spot dilution, duplicates (1),(2)): 0.25 µg/mL | Passage MIC Passage #3 (Untreated) ([5]; Passage #3, MIC of agent on untreated culture): 0.25 µg/mL | Passage MIC Passage #3 ([5]; Passage #3, colonies from spot dilution, duplicates (1),(2)): 0.25 µg/mL | Passage MIC Passage #4 (Untreated) ([5]; Passage #4, MIC of agent on untreated culture): 0.25 µg/mL | Passage MIC Passage #4 ([5]; Passage #4, colonies from spot dilution, duplicates (1),(2)): 0.25 µg/mL | Passage MIC Passage #5 (Untreated) ([5]; Passage #5, MIC of agent on untreated culture): 0.25 µg/mL | Passage MIC Passage #5 ([5]; Passage #5, colonies from spot dilution, duplicates (1),(2)): 0.25 µg/mL | MIC Center ([5]; spot dilution assay, colonies from center of clearing zone): No growth | MIC Periphery ([5]; spot dilution assay, colonies from periphery of clearing zone): 0.25 µg/mL | MIC Untreated control ([5]; spot dilution assay, untreated control): 0.25 µg/mL | propensity towards resistance ([5]; spot dilution colonies, five passages total): no propensity towards resistance
